System: mildew of wheat (Erysiphe graminis forma specialis tritici)
Assay: Activity against mildew of wheat (protective spray on potted wheat seedlings)
Assay type: in vivo
Conditions: wheat seedlings cv. Kanzler, inoculated 24 h after spraying, evaluated after 7 days
Experimental: The active compounds, separately or together, are formulated as a 10% emulsion in a mixture of 63% by weight of cyclohexanone and 27% by weight of emulsifier, and diluted with water to the desired concentration.
Evaluation is carried out by determining the infected leaf areas in percent. These percentages are converted into efficacies. The efficacy (W) is calculated as follows using Abbot's formula: W=(1−α/β)·100 α corresponds to the fungal infection of the treated plants in % and β corresponds to the fungal infection of the untreated (control) plants in %
An efficacy of 0 means that the infection level of the treated plants corresponds to that of the untreated control plants; an efficacy of 100 means that the treated plants were not infected.
The expected efficacies of the mixtures of the active compounds were determined using Colby's formula [F. S. Colby, Weeds 15, 20–22 (1967)] and compared with the observed efficacies. • Colby's formula: E=x+y−x·y/100 E expected efficacy, expressed in % of the untreated control, when using the mixture of the active compounds A and B at the concentrations a and b x efficacy, expressed in % of the untreated control, when using active compound A at a concentration of a y efficacy, expressed in % of the untreated control, when using active compound B at a concentration of b.
Leaves of potted wheat seedlings cv. “Kanzler” were sprayed to runoff point with an aqueous preparation of active compound which was prepared from a stock solution comprising 10% of active compound, 63% of cyclohexanone and 27% of emulsifier and, 24 h after the spray coating had dried on, dusted with spores of mildew of wheat (Erysiphe graminis forma specialis tritici). The test plants were subsequently placed in climatized chambers at 20–24° C. and 60–90% relative atmospheric humidity for 7 days. The extent of the development of the infection on the leaves was then determined visually.
The visually determined values for the percentage of infected leaf areas were converted into efficacies as % of the untreated control. An efficacy of 0 means the same degree of infection as in the untreated control, an efficacy of 100 means 0% infection. The expected efficacies for active compound combinations were determined using Colby's formula (Colby, S. R. “Calculating synergistic and antagonistic responses of herbicide combinations”, Weeds, 15 (1967), 20–22) and compared with the observed efficacies.

Compound | Efficacy in % of the untreated control (0.25 ppm) | Efficacy in % of the untreated control (1 ppm)
CC(Cc1ccc(C(C)(C)C)cc1)CN1C[C@@H](C)O[C@@H](C)C1 (stereo partly shown) [Compound I.a, Fenpropimorph] | 55% | 
CC(Cc1ccc(C(C)(C)C)cc1)CN1CCCCC1 (stereo not shown) [Compound I.b, Fenpropidin] | 55% | 
CCCCCCCCCCCCCN1CC(C)OC(C)C1 (stereo not shown) [Compound I.c, Tridemorph] | 0% | 0%
